# Results taken from US6821926B1, “Carbamoyl triazolinone based herbicide” (Bayer Aktiengesellschaft, priority 1999, dated 2004).
# How the values were obtained:
# Experiment in all cases: Pre-emergence/greenhouse herbicidal test, % damage
# Assay type in all cases: in vivo
# Alopecurus = settings: pre-emergence, after approximately 3 weeks
# Method: (§1) Customary formulations of the respective active compounds were used. Butafenacil was employed as Inspire® 100 EC, azafenidin as an 80 WG formulation and the compound of the formula (I-1) as a 70 WG formulation. The active compounds were used to prepare an aqueous spray mixture with 0.1% of Renex-36 as additive. Pre-emergence/greenhouse Seeds of the test plants are sown in standard soil. After 24 hours, the test compound or the combination of test compounds, is sprayed onto the soil surface in such a manner as to apply the amount of active compound per unit area desired in each case. The concentration of the spray mixture is chosen so that the desired amounts of active compound desired are applied in 500 l of water per ha. After the spray application, the plant containers are placed in the greenhouse under constant light and temperature conditions. After approximately 3 weeks, the degree of damage of the crop plants is scored in % damage in comparison with the development of the untreated control. The figures denote: 0%=no damage (as untreated control) 100%=Total destruction/damage
# Digitaria = settings: pre-emergence, after approximately 3 weeks
# Method: as §1
# Setaria = settings: pre-emergence, after approximately 3 weeks
# Method: as §1
# Galium = settings: pre-emergence, after approximately 3 weeks
# Method: as §1
# Solanum = settings: after approximately 3 weeks
# Method: as §1
# Xanthium = settings: pre-emergence, after approximately 3 weeks
# Method: as §1
# Datura = settings: pre-emergence, after approximately 3 weeks
# Method: as §1
# Ipomea = settings: pre-emergence, after approximately 3 weeks
# Method: as §1
# Cassia = settings: pre-emergence, after approximately 3 weeks
# Method: as §1
# Abutilon = settings: pre-emergence, after approximately 3 weeks
# Method: as §1
smiles,measurement,setting,value
"C=CCOC(=O)C(C)(C)OC(=O)c1cc(-n2c(=O)cc(C(F)(F)F)n(C)c2=O)ccc1Cl [Butafenacil, [1,1-dimethyl-2-oxo-2-(2-propenyloxy)]-ethyl 2-chloro-5-(3,6-dihydro-3-methyl-2,6-dioxo-4-trifluoromethyl-1(2H)-pyrimidinyl)-benzoate]",Alopecurus observed,Alopecurus; 0.5 g ai/ha,0%
same,Alopecurus observed,Alopecurus; 2 g ai/ha,0%
same,Digitaria observed,Digitaria; 0.5 g ai/ha,20%
same,Digitaria observed,Digitaria; 1 g ai/ha,20%
same,Setaria observed,Setaria; 0.5 g ai/ha,0%
same,Setaria observed,Setaria; 2 g ai/ha,0%
same,Galium observed,Galium; 1 g ai/ha,0%
same,Solanum observed,"Solanum; pre-emergence, 0,5 g ai/ha",0%
same,Solanum observed,"Solanum; pre-emergence, 1 g ai/ha",0%
same,Solanum observed,"Solanum; pre-emergence, 2 g ai/ha",0%
same,Xanthium observed,Xanthium; 2 g ai/ha,0%
same,Datura observed,Datura; 2 g ai/ha,30%
same,Ipomea observed,Ipomea; 0.5 g ai/ha,0%
same,Cassia observed,Cassia; 0.5 g ai/ha,0%
same,Abutilon observed,Abutilon; 2 g ai/ha,30%
"CC(C)c1nn(C(=O)NC(C)(C)C)c(=O)n1N [Compound (I-1), 4-amino-5-(1-methyl-ethyl)-2-(1,1-dimethyl-ethyl-aminocarbonyl)-2,4-dihydro-3H-1,2,4-triazol-3-one]",Alopecurus observed,Alopecurus; 125 g ai/ha,0%
same,Digitaria observed,Digitaria; 125 g ai/ha,40%
same,Setaria observed,Setaria; 125 g ai/ha,0%
same,Galium observed,Galium; 125 g ai/ha,80%
same,Solanum observed,"Solanum; pre-emergence, 60 g ai/ha",90%
same,Xanthium observed,Xanthium; 125 g ai/ha,90%
same,Datura observed,Datura; 60 g ai/ha,50%
same,Ipomea observed,Ipomea; 125 g ai/ha,50%
same,Cassia observed,Cassia; 60 g ai/ha,30%
same,Abutilon observed,Abutilon; 60 g ai/ha,50%
